In patent publication US10329294B2, “Pyrazolopyrimidine inhibitors of IRAK4 activity” (MERCK SHARP & DOHME CORP., priority 2015, dated 2019):
Where a name gives a salt, the structure may show the parent alone.

Biological target: IRAK4 (Homo sapiens (Human), UniProt Q9NWZ3)
Assay: IRAK4 Kinase Assay
Type: biochemical
Conditions: IMAP fluorescence polarization, 0.5 nM GST tagged IRAK4, 100 μM ATP, 30 minutes at 25° C.; read-out: IRAK4 IC50

Chain of IRAK4 (Q9NWZ3 whole entry): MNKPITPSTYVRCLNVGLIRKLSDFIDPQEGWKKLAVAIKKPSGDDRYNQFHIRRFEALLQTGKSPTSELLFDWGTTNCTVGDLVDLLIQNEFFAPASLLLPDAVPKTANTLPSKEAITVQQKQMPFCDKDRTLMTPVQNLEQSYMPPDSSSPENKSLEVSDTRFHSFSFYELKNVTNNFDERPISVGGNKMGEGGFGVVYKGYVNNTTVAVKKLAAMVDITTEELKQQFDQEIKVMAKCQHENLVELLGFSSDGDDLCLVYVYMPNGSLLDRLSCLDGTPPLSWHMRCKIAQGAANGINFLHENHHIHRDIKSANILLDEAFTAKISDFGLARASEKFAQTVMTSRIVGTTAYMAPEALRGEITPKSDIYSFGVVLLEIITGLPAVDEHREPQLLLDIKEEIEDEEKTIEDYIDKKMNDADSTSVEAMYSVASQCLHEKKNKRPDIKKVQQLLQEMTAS

Structure (SMILES) | IC50 [nM]
Cn1cc(NC(=O)c2cnn3ccc(N[C@H]4CCCCC[C@H]4N)nc23)c(C(F)(F)F)n1 (relative stereo) [Example 33, 5-{[cis-2-aminocycloheptyl]amino}-N-[1-methyl-3-(trifluoromethyl)-1H-pyrazol-4-yl]pyrazolo[1,5-a]pyrimidine-3-carboxamide] | 2
C[C@@H]1CN(c2ccn3ncc(C(=O)Nc4cn(C)nc4C(F)(F)F)c3n2)[C@H](C)CN1 (relative stereo) [Example 75, 5-[cis-2,5-dimethylpiperazin-1-yl]-N-[1-methyl-3-(trifluoromethyl)-1H-pyrazol-4-yl]pyrazolo[1,5-a]pyrimidine-3-carboxamide trifluoroacetate] | 55
C[C@@H]1CN[C@@H](C)CN1c1ccn2ncc(C(=O)Nc3cn(C)nc3C(F)(F)F)c2n1 (relative stereo) [Example 93, 5-[trans-2,5-dimethylpiperazin-1-yl]-N-[1-methyl-3-(trifluoromethyl)-1H-pyrazol-4-yl]pyrazolo[1,5-a]pyrimidine-3-carboxamide trifluoroacetate] | 30
Cn1cc(NC(=O)c2cnn3ccc(N[C@@H]4CCCCC[C@@H]4N)nc23)c(C(F)(F)F)n1 (single isomer, unassigned) [Example 54, 5-{[(1R,2S)- or (1S,2R)-2-aminocycloheptyl]amino}-N-[1-methyl-3-(trifluoromethyl)-1H-pyrazol-4-yl]pyrazolo[1,5-a]pyrimidine-3-carboxamide] | 63
Cn1cc(NC(=O)c2cnn3ccc(N[C@H]4CCCCC[C@H]4N)nc23)c(C(F)(F)F)n1 (single isomer, unassigned) [Example 55, 5-{[(1R,2S)- or (1S,2R)-2-aminocycloheptyl]amino}-N-[1-methyl-3-(trifluoromethyl)-1H-pyrazol-4-yl]pyrazolo[1,5-a]pyrimidine-3-carboxamide] | 8
Cn1cc(NC(=O)c2cnn3ccc(N4C[C@H]5CC[C@@H]4CN5)nc23)c(C(F)(F)F)n1 (single isomer, unassigned) [Example 77, 5-[1S,4S)- or (1R,4R)-2,5-diazabicyclo[2.2.2]oct-2-yl]-N-[1-methyl-3-(trifluoromethyl)-1H-pyrazol-4-yl]pyrazolo[1,5-a]pyrimidine-3-carboxamide trifluoroacetate] | 19
Cn1cc(NC(=O)c2cnn3ccc(N4C[C@@H]5CC[C@H]4CN5)nc23)c(C(F)(F)F)n1 (single isomer, unassigned) [Example 78, 5-[(1S,4S)- or (1R,4R)-2,5-diazabicyclo[2.2.2]oct-2-yl]-N-[1-methyl-3-(trifluoromethyl)-1H-pyrazol-4-yl]pyrazolo[1,5-a]pyrimidine-3-carboxamide trifluoroacetate] | 44
Cn1cc(NC(=O)c2cnn3ccc(N4C[C@@H]5CNC[C@H]4C5)nc23)c(C(F)(F)F)n1 (single isomer, unassigned) [Example 83, 5-[(1S,5R)- or (1R,5S)-3,6-diazabicyclo[3.2.1]oct-6-yl]-N-[1-methyl-3-(trifluoromethyl)-1H-pyrazol-4-yl]pyrazolo[1,5-a]pyrimidine-3-carboxamide] | 33
Cn1cc(NC(=O)c2cnn3ccc(N4C[C@H]5CNC[C@@H]4C5)nc23)c(C(F)(F)F)n1 (single isomer, unassigned) [Example 84, 5-[(1S,5R)- or (1R,5S)-3,6-diazabicyclo[3.2.1]oct-6-yl]-N-[1-methyl-3-(trifluoromethyl)-1H-pyrazol-4-yl]pyrazolo[1,5-a]pyrimidine-3-carboxamide] | 158
Cn1cc(NC(=O)c2cnn3ccc(N4CC[C@H]5CC[C@@H](C4)N5)nc23)c(C(F)(F)F)n1 (single isomer, unassigned) [Example 89, 5-[(1R,6S)- or (1S,6R)-3,9-diazabicyclo[4.2.1]non-3-yl]-N-[1-methyl-3-(trifluoromethyl)-1H-pyrazol-4-yl]pyrazolo[1,5-a]pyrimidine-3-carboxamide trifluoroacetate] | 270
Cn1cc(NC(=O)c2cnn3ccc(N4CC[C@@H]5CC[C@H](C4)N5)nc23)c(C(F)(F)F)n1 (single isomer, unassigned) [Example 94, 5-[(1R,6S)- or (1S,6R)-3,9-diazabicyclo[4.2.1]non-3-yl]-N-[1-methyl-3-(trifluoromethyl)-1H-pyrazol-4-yl]pyrazolo[1,5-a]pyrimidine-3-carboxamide trifluoroacetate] | 70
Cn1cc(NC(=O)c2cnn3ccc(N4C[C@@H]5CC[C@H]4CN5)nc23)c(Cl)n1 (single isomer, unassigned) [Example 151, N-(3-chloro-1-methyl-1H-pyrazol-4-yl)-5-[(1S,4S)- or (1R,4R)-(2,5-diazabicyclo[2.2.2]oct-2-yl]pyrazolo[1,5-a]pyrimidine-3-carboxamide trifluoroacetate] | 128
Cn1cc(NC(=O)c2cnn3ccc(N4C[C@H]5CC[C@@H]4CN5)nc23)c(Cl)n1 (single isomer, unassigned) [Example 152, N-(3-chloro-1-methyl-1H-pyrazol-4-yl)-5-[(1S,4S)- or (1R,4R)-(2,5-diazabicyclo[2.2.2]oct-2-yl]pyrazolo[1,5-a]pyrimidine-3-carboxamide trifluoroacetate] | 28
O=C(Nc1cscc1C(F)F)c1cnn2ccc(N3C[C@@H]4CC[C@H]3CN4)nc12 (single isomer, unassigned) [Example 154, 5-[(1S,4S)- or (1R,4R)-2,5-diazabicyclo[2.2.2]oct-2-yl]-N-[4-(difluoromethyl)thiophen-3-yl]pyrazolo[1,5-a]pyrimidine-3-carboxamide trifluoroacetate] | 86
O=C(Nc1cscc1C(F)F)c1cnn2ccc(N3C[C@H]4CC[C@@H]3CN4)nc12 (single isomer, unassigned) [Example 155, 5-[(1S,4S)- or (1R,4R)-2,5-diazabicyclo[2.2.2]oct-2-yl]-N-[4-(difluoromethyl)thiophen-3-yl]pyrazolo[1,5-a]pyrimidine-3-carboxamide trifluoroacetate] | 32
Cn1cc(NC(=O)c2cnn3ccc(N4C[C@@H]5CC[C@H]4CN5)nc23)c(C#N)n1 (single isomer, unassigned) [Example 156, N-(3-cyano-1-methyl-1H-pyrazol-4-yl)-5-[(1S,4S)- or (1R,4R)-2,5-diazabicyclo[2.2.2]oct-2-yl]pyrazolo[1,5-a]pyrimidine-3-carboxamide trifluoroacetate] | 41
Cn1cc(NC(=O)c2cnn3ccc(N4C[C@H]5CC[C@@H]4CN5)nc23)c(C#N)n1 (single isomer, unassigned) [Example 157, N-(3-cyano-1-methyl-1H-pyrazol-4-yl)-5-[(1S,4S)- or (1R,4R)-2,5-diazabicyclo[2.2.2]oct-2-yl]pyrazolo[1,5-a]pyrimidine-3-carboxamide trifluoroacetate] | 60
Cn1cc(NC(=O)c2cnn3ccc(N4C[C@@H]5CC[C@H]4CN5)nc23)c(C(F)F)n1 (single isomer, unassigned) [Example 158, 5-[(1S,4S)- or (1R,4R)-2,5-diazabicyclo[2.2.2]oct-2-yl]-N-[3-(difluoromethyl)-1-methyl-1H-pyrazol-4-yl]pyrazolo[1,5-a]pyrimidine-3-carboxamide trifluoroacetate] | 3
Cn1cc(NC(=O)c2cnn3ccc(N[C@H]4CCCCNC4)nc23)c(C(F)(F)F)n1 (single isomer, unassigned) [Example 159, 5-[(3S)- or (3R)-azepan-3-ylamino]-N-[1-methyl-3-(trifluoromethyl)-1H-pyrazol-4-yl]pyrazolo[1,5-a]pyrimidine-3-carboxamide trifluoroacetate] | 18
Cn1cc(NC(=O)c2cnn3ccc(N[C@@H]4CCCCNC4)nc23)c(C(F)(F)F)n1 (single isomer, unassigned) [Example 160, 5-[(3S)- or (3R)-azepan-3-ylamino]-N-[1-methyl-3-(trifluoromethyl)-1H-pyrazol-4-yl]pyrazolo[1,5-a]pyrimidine-3-carboxamide trifluoroacetate] | 0.5
Cn1cc(NC(=O)c2cnn3ccc(N4C[C@H]5CC[C@@H]4CN5)nc23)c(C(F)F)n1 (single isomer, unassigned) [Example 161, 5-[(1S,4S)- or (1R,4R)-2,5-diazabicyclo[2.2.2]oct-2-yl]-N-[3-(difluoromethyl)-1-methyl-1H-pyrazol-4-yl]pyrazolo[1,5-a]pyrimidine-3-carboxamide trifluoroacetate] | 2
Cn1cc(NC(=O)c2cnn3ccc(N[C@@H]4CCCCNC4)nc23)c(C(F)F)n1 (single isomer, unassigned) [Example 162, 5-[(3S)- or (3R)-azepan-3-ylamino]-N-[3-(difluoromethyl)-1-methyl-1H-pyrazol-4-yl]pyrazolo[1,5-a]pyrimidine-3-carboxamide trifluoroacetate] | 0.2
Cn1cc(NC(=O)c2cnn3ccc(N[C@H]4CCCCNC4)nc23)c(C(F)F)n1 (single isomer, unassigned) [Example 163, 5-[(3S)- or (3R)-azepan-3-ylamino]-N-[3-(difluoromethyl)-1-methyl-1H-pyrazol-4-yl]pyrazolo[1,5-a]pyrimidine-3-carboxamide trifluoroacetate] | 7
Cn1cc(NC(=O)c2cnn3ccc(N4C[C@@H]5CC[C@H]4CN5)nc23)c(Br)n1 (single isomer, unassigned) [Example 164, N-(3-bromo-1-methyl-1H-pyrazol-4-yl)-5-[(1S,4S)- or (1R,4R)-2,5-diazabicyclo[2.2.2]oct-2-yl]pyrazolo[1,5-a]pyrimidine-3-carboxamide trifluoroacetate] | 50
Cn1cc(NC(=O)c2cnn3ccc(N4C[C@H]5CC[C@@H]4CN5)nc23)c(Br)n1 (single isomer, unassigned) [Example 165, N-(3-bromo-1-methyl-1H-pyrazol-4-yl)-5-[(1S,4S)- or (1R,4R)-2,5-diazabicyclo[2.2.2]oct-2-yl]pyrazolo[1,5-a]pyrimidine-3-carboxamide trifluoroacetate] | 19
